Molecular target: Substance-P receptor (Homo sapiens, UniProt P25103)
Experiment: Binding affinity for human NK1 receptor expressed in CHO cells
Assay type: cell-based

Substance-P receptor, sequence (P25103 whole entry): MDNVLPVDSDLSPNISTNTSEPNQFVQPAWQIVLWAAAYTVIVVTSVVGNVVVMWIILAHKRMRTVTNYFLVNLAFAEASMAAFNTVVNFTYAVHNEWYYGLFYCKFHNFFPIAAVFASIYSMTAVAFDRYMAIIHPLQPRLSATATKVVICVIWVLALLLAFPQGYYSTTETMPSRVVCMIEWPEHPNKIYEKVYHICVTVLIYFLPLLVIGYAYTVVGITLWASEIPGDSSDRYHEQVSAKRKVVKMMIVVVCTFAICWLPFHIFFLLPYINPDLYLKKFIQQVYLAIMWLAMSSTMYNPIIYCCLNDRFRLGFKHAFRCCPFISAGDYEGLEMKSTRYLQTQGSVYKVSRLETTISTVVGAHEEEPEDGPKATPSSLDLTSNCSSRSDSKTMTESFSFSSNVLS

Row | Structure (SMILES) | IC50 [nM]
1 | FC(F)(F)c1cc(COC[C@]2(c3ccccc3)CCCCN2)cc(C(F)(F)F)c1 | 1
2 | FC(F)(F)c1cc(COC[C@]2(c3ccccc3)CCCN2)cc(C(F)(F)F)c1 | 20
